No end group written: not given here.
Key:
Format in all cases: in vivo, mice
RKO-DR tumors = test: MRMI of EDB-FN with MT218, RKO-DR xenografts
Procedure: (§1) Nude athymic mice (6-week-old nu/nu females) were purchased from The Jackson Laboratory (Bar Harbor, […]) and housed in the Animal Facility at CWRU. All the animal experiments were performed according to the protocol approved by the IACUC of CWRU. For assessment of drug resistance, 2 drug-resistant and 2 non-drug-resistant models were set up. About 3-4×10^6 DLD-1, RKO, DLD1-DR, and RKO-DR cells suspended in Matrigel-PBS mixture (1:1) were subcutaneously injected in the left flanks of nude mice (100 μL per mouse, 5 mice per group×4 models=20 mice). After 9 days when the tumors reached 100-200 mm3, MRMI was performed on the 4 xenograft models with 40 μmol/kg dose of MT218. The animals were then euthanized, and the tumors were harvested for post-mortem histology and IHC.
MT218 was synthesized as previously described. Ayat, N. R., et al., ACS Med Chem Lett, 2018. 9(7): p. 730-735. Briefly, click reaction between alkynyl-ZD2 and N3-Gd(HP-DO3A) was performed in the presence of CuSO4 and ascorbate at room temperature, followed by FLASH chromatography purification and validation of MT218 by MALDI-TOF mass spectrometry (m.w. 1443). For assessment of drug resistance and therapeutic monitoring, MRMI was performed in a 3T MRS 3000 scanner (MR Solutions, Surrey, UK) with a mouse short quad coil. The mice were anesthetized with isofluorane and tail vein catheter was setup. T1-weighted MR images were obtained before (pre-contrast) and 25 min after injection (post-contrast) of 40 μmol/kg dose of MT218 [ZD2-N3—Gd(HP-DO3A)]. The following two sequences were used with respiratory gating: axial fast spin echo (FSE) (TR=305 ms, TE=11 ms, FA=90°, FOV=40 mm×40 mm, slice thickness=1 mm, slice number=15, Nav=2, matrix=256×256) and coronal FSE (TR=305 ms, TE=11 ms, FA=90°, FOV=90 mm×90 mm, slice thickness=1 mm, slice number=20, Nav=1, matrix=248×512). […] Contrast-to-noise ratios (CNRs) were calculated as (mean tumor intensity—mean muscle intensity)/standard deviation of noise. […]

RKO tumors = test: MRMI of EDB-FN with MT218, RKO xenografts; conditions: 40 μmol/kg MT218, 25 min post-injection
Procedure: as §1
MT218 was synthesized as previously described. Ayat, N. R., et al., ACS Med Chem Lett, 2018. 9(7): p. 730-735. Briefly, click reaction between alkynyl-ZD2 and N3-Gd(HP-DO3A) was performed in the presence of CuSO4 and ascorbate at room temperature, followed by FLASH chromatography purification and validation of MT218 by MALDI-TOF mass spectrometry (m.w. 1443). […] Contrast-to-noise ratios (CNRs) were calculated as (mean tumor intensity—mean muscle intensity)/standard deviation of noise. […]

C4-2 tumors = test: MRMI with MT218, C4-2 xenografts; conditions: 0.04 mmol Gd/kg, 20 min post-injection
Excerpt: Xenograft models were established by subcutaneous flank injections in athymic nu/nu mice for the 4 prostate cancer cells and tested with MRMI using 0.04 mmol Gd/kg of MT218.

Hs578T tumors = test: MRMI-mediated monitoring of therapeutic response, Hs578T tumors; conditions: pretreatment Hs578T tumors, MT218 0.1 mmol/kg, first 30 min
Procedure: The targeted MRI contrast agent ZD2-N3-Gd(HP-DO3A) (MT218) was provided by Molecular Theranostics (Cleveland, OH) and was synthesized. MR images of the mice bearing MDA-MB-231 or Hs578T tumors were acquired on a 3T MRS 3000 scanner (MRS Solutions, Surrey, UK) with a mouse short quad coil. T1-weighted images were acquired following intravenous injection of MT218 at dose of 0.1 mmol/kg using a fast spin echo (FSE) axial sequence with respiratory gating (TR=305 ms, TE=11 ms, FA=90°, FOV=40×40 mm, slice thickness=1 mm, slice number=15, Nav=2, matrix=256×256). Images were acquired before and at 10, 20, and 30 min after injection of MT218. MRMI was performed before the treatment and then at week 6 post-nanoparticle treatments for MDA-MB-231 and Hs578T tumors. MRI data and image processing was conducted using FIJI (FIJI is just ImageJ) software. The contrast-to-noise ratios (CNRs) of tumors were calculated as the difference of the mean tumor intensity and the mean muscle intensity divided by the standard deviation of the noise.

[1] = RKO-DR over RKO tumors, 40 μmol/kg MT218

Which results are given for “ZD2-N3-Gd(HP-DO3A) (TVRTSAD; also: conjugated to Gd(HP-DO3A) by click reaction of alkynyl-ZD2 with N3-Gd(HP-DO3A), residue of attachment not given here, Gd complex) [MT218, EDB-FN-targeted MRI contrast agent; ZD2 peptide conjugated to the clinical macrocyclic agent Gd(HP-DO3A)]”?
higher CNRs over the non-resistant tumors (RKO-DR tumors; [1]): 1.8 fold; increase in CNR over the non-resistant tumors (RKO-DR tumors; [1]): 84%; higher CNRs over pre-contrast (RKO-DR tumors; RKO-DR tumors, 40 μmol/kg MT218, 25 min post-injection): 2.6 fold; increase in CNRs over the pre-contrast (RKO tumors): 1.4 fold; increase of CNR (C4-2 tumors): ~3 fold; signal enhancement vs pre-contrast (Hs578T tumors): Strong signal enhancement

Reference: US20240374763A1, “DIAGNOSIS AND MONITORING USING EXTRADOMAIN-B FIBRONECTIN TARGETED PROBES” (Case Western Reserve University, priority 2020, published 2024)
